Measurements from ChEMBL document CHEMBL1250448, “Inhibitor hijacking of Akt activation” (Nat Chem Biol, 2009).
Values belong to the compound of their own block, whether it stands above or below them. The source made the active and inactive calls. The calls are words filed in the database; no cut-off is given here.

Columns and labels:
[1] = target: RAC-alpha serine/threonine-protein kinase (Homo sapiens, UniProt P31749); assay: Induction of flag-tagged wild type AKT1 Ser473 hyperphosphorylation expressed in HEK293 cells coexpressing HA-tagged AKT1 M227G after 30 mins by immunoblotting
HEK-293T [2] = assay: Induction of nonmyristoylated AKT2 M225G and kinase dead D289A mutant Thr308 hyperphosphorylation expressed in HEK293T cells at 2.5 uM after 30 mins by immunoblotting; assay type: cell-based
[3] = test system: RAC-alpha serine/threonine-protein kinase (Homo sapiens), P31749 [M227G]; assay: Induction of myristoylated AKT1 M227G Thr308 hyperphosphorylation expressed in MCF7 cells at 2.5 uM after 30 mins by immunoblotting; assay type: cell-based
HEK-293T [4] = assay: Induction myristoylated AKT2 M225G mutant Thr308 hyperphosphorylation expressed in HEK293T cells at 2.5 uM after 30 mins pretreated with pan-PI3K inhibitor PIK90 for 10 mins before compound addition by immunoblotting; assay type: cell-based
HEK-293T [5] = assay: Induction myristoylated AKT2 M225G mutant Ser473 hyperphosphorylation expressed in HEK293T cells at 2.5 uM after 30 mins by immunoblotting; assay type: cell-based
HEK-293T [6] = assay: Induction myristoylated AKT2 M225G mutant Ser473 hyperphosphorylation expressed in HEK293T cells at 2.5 uM after 30 mins pretreated with pan-PI3K inhibitor PIK90 for 10 mins before compound addition by immunoblotting; assay type: cell-based
[7] = test system: RAC-alpha serine/threonine-protein kinase (Homo sapiens), P31749 [M227G,R25C]; assay: Induction of myristoylated AKT1 M227G and R25C mutant Ser473 hyperphosphorylation expressed in HEK293T cells at 2.5 uM after 30 mins by immunoblotting; assay type: cell-based; conditions: HEK-293T
MiaPaCa2 = assay: Induction of myristoylated AKT2 M225G mutant Ser473 hyperphosphorylation expressed in MiaPaCa2 cells at 2.5 uM after 30 mins by immunoblotting; assay type: cell-based
MCF7 = assay: Induction of myristoylated AKT2 M225G mutant Thr308 hyperphosphorylation expressed in MCF7 cells at 2.5 uM after 30 mins by immunoblotting; assay type: cell-based
HEK-293T [8] = assay: Induction of myristoylated AKT3 M229G mutant Ser473 hyperphosphorylation expressed in HEK293T cells at 2.5 uM after 30 mins pretreated with pan-PI3K inhibitor PIK90 for 10 mins before compound addition by immunoblotting; assay type: cell-based
[9] = test system: RAC-alpha serine/threonine-protein kinase (Homo sapiens), P31749 [M227G]; assay: Induction of myristoylated AKT1 M227G mutant Thr308 hyperphosphorylation expressed in HEK293T cells at 2.5 uM after 30 mins pretreated with pan-PI3K inhibitor PIK90 for 10 mins before compound addition by immunoblotting; assay type: cell-based; conditions: HEK-293T
HEK-293T [10] = assay: Induction myristoylated AKT2 M225G mutant Thr308 hyperphosphorylation expressed in HEK293T cells at 2.5 uM after 30 mins pretreated with mTOR kinase inhibitor PP242 for 10 mins before compound addition by immunoblotting; assay type: cell-based
[11] = test system: RAC-alpha serine/threonine-protein kinase (Homo sapiens), P31749 [M227G]; assay: Induction of membrane localized myristoylated AKT1 M227G mutant Thr308 hyperphosphorylation expressed in HEK293T cells at 2.5 uM after 30 mins by immunoblotting; assay type: cell-based; conditions: HEK-293T
[12] = test system: RAC-alpha serine/threonine-protein kinase (Homo sapiens), P31749 [M227G,D292A]; assay: Induction of myristoylated AKT1 M227G and kinase dead D292A mutant Thr308 hyperphosphorylation expressed in PC3 cells at 2.5 uM after 30 mins by immunoblotting; assay type: cell-based; conditions: PC-3
[13] = test system: RAC-alpha serine/threonine-protein kinase (Homo sapiens), P31749 [M227G]; assay: Induction of myristoylated AKT1 M227G Ser473 hyperphosphorylation expressed in HEK293 cells coexpressing flag-tagged wild type AKT1 after 30 mins by immunoblotting; assay type: cell-based
[14] = test system: RAC-alpha serine/threonine-protein kinase (Homo sapiens), P31749 [M227G]; assay: Induction of myristoylated AKT1 M227G mutant Ser473 hyperphosphorylation expressed in HEK293T cells at 2.5 uM after 30 mins pretreated with PDK1 inhibitor BX-795 for 10 mins before compound addition by immunoblotting; assay type: cell-based; conditions: HEK-293T
[15] = test system: RAC-alpha serine/threonine-protein kinase (Homo sapiens), P31749 [M227G,D292A]; assay: Induction of myristoylated AKT1 M227G and kinase dead D292A mutant Thr308 hyperphosphorylation expressed in HEK293T cells at 2.5 uM after 30 mins by immunoblotting; assay type: cell-based; conditions: HEK-293T
[16] = test system: RAC-alpha serine/threonine-protein kinase (Homo sapiens), P31749 [M227G]; assay: Induction of membrane localized myristoylated AKT1 M227G mutant Ser473 hyperphosphorylation expressed in HEK293T cells at 2.5 uM after 30 mins by immunoblotting; assay type: cell-based; conditions: HEK-293T
PC-3 = assay: Induction of myristoylated AKT2 M225G and kinase dead D289A mutant Thr308 hyperphosphorylation expressed in PC3 cells at 2.5 uM after 30 mins by immunoblotting; assay type: cell-based
[17] = test system: RAC-alpha serine/threonine-protein kinase (Homo sapiens), P31749 [M227G]; assay: Induction of myristoylated AKT1 M227G Ser473 hyperphosphorylation expressed in MCF7 cells at 2.5 uM after 30 mins by immunoblotting; assay type: cell-based
[18] = test system: RAC-alpha serine/threonine-protein kinase (Homo sapiens), P31749 [M227G]; assay: Induction of flag tagged AKT1 M227G Ser473 hyperphosphorylation expressed in HEK293 cells at 2.5 uM after 30 mins by immunoblotting; assay type: cell-based
[19] = test system: RAC-alpha serine/threonine-protein kinase (Homo sapiens), P31749 [M227G]; assay: Induction of myristoylated AKT1 M227G mutant Thr308 hyperphosphorylation expressed in HEK293T cells at 2.5 uM after 30 mins pretreated with PDK1 inhibitor BX-795 for 10 mins before compound addition by immunoblotting; assay type: cell-based; conditions: HEK-293T
[20] = target: Serine/threonine-protein kinase 26 (Homo sapiens) (UniProt Q9P289); assay: Inhibition of MST4 at 1 uM in presence of 100 uM ATP by Select Screen kinase assay relative to untreated control
[21] = target: RAC-alpha serine/threonine-protein kinase (Rattus norvegicus) (UniProt P47196); assay: Induction AKT1 Thr308 hyperphosphorylation in insulin-induced rat L6 cells after 20 mins before insulin stimulation by immunoblotting; assay type: cell-based
Chain of RAC-alpha serine/threonine-protein kinase (Rattus norvegicus) (P47196 whole entry): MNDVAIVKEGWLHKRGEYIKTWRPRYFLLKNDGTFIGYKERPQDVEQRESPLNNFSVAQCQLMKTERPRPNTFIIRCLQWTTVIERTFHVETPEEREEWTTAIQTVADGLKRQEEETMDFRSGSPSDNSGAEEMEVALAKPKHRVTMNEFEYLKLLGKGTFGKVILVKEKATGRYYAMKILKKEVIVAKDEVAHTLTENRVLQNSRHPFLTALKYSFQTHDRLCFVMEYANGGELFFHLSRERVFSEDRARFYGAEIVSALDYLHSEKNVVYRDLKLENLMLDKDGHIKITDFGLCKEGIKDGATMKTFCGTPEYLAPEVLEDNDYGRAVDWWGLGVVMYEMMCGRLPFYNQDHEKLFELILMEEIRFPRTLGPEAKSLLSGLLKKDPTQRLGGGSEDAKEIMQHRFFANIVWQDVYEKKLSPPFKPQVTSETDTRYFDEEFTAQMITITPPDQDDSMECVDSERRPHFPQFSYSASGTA

Chain of RAC-alpha serine/threonine-protein kinase (Homo sapiens), P31749 [M227G] (P31749 whole entry M227G): as the sequence (P47196 whole entry) above, with N2S, E46D, S50A, R112K, T117E, A137S, M227G, T389K, N410G, D415H counted along it
Chain of RAC-alpha serine/threonine-protein kinase (Homo sapiens), P31749 [M227G,D292A] (P31749 whole entry M227G/D292A): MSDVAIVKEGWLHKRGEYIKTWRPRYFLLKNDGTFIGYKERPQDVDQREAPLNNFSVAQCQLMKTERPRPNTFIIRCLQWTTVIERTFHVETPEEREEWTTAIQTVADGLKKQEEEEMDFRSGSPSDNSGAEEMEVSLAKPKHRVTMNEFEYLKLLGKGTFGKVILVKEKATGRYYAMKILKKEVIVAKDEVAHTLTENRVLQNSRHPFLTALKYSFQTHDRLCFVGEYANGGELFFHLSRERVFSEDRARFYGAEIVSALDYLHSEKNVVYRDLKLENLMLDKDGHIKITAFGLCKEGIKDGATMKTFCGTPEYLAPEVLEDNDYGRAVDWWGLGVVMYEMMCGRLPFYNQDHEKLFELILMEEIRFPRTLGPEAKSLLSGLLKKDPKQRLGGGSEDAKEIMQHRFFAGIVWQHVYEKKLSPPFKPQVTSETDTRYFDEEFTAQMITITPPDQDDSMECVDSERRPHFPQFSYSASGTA
Chain of RAC-alpha serine/threonine-protein kinase (P31749 whole entry): as the sequence (P31749 whole entry M227G/D292A) above, with G227M, A292D counted along it
Chain of RAC-alpha serine/threonine-protein kinase (Homo sapiens), P31749 [M227G,R25C] (P31749 whole entry R25C/M227G): as the sequence (P31749 whole entry M227G/D292A) above, with R25C, A292D counted along it
Chain of Serine/threonine-protein kinase 26 (Homo sapiens) (Q9P289 2-416 limits assumed): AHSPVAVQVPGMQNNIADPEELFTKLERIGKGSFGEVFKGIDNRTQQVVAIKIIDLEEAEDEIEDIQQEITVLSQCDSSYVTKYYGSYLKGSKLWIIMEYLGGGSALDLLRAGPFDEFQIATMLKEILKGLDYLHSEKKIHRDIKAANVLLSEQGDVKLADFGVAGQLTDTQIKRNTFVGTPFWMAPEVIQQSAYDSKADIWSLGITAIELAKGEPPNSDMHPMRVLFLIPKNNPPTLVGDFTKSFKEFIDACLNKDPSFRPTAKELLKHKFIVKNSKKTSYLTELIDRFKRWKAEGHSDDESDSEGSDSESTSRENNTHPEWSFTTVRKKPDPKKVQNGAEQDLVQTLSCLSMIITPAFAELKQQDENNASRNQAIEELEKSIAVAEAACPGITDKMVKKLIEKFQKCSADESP

Activity [1]: inactive
Activity [3]: Active
Activity [7]: inactive
Activity [9]: inactive
Activity [11]: Active
Activity [12]: Active
Activity [13]: Active
Activity [14]: inactive
Activity [15]: Active
Activity [16]: Active
Activity [17]: Active
Activity [18]: Active
Activity [19]: inactive
Compound: CCCc1cc(-c2cncc(OC[C@@H](N)Cc3c[nH]c4ccccc34)c2)cc2c(C)n[nH]c12
Activity (HEK-293T [2]): Active
Activity (HEK-293T [4]): inactive
Activity (HEK-293T [5]): Active
Activity (HEK-293T [6]): inactive
Activity (MiaPaCa2): Active
Activity (MCF7): Active
Activity (HEK-293T [8]): inactive
Activity (HEK-293T [10]): Active
Activity (PC-3): Active

inhibition [20]: 11%
Activity [21]: inactive
Compound: COc1ccccc1N1CCN(c2ncnc3[nH]nc(Br)c23)CC1
